# Test results: PubChem BioAssay (NCI)
#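 Cultured in 96-well plates, cells were exposed to test compound for 48 hours across five concentrations. At the GI50, growth is halved. TGI is the concentration that stops growth completely.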
# Columns and labels:
# Test in all cases: NCI anticancer screen, dose series, 48 h
# [1] = test system: 786-0 renal
# [2] = test system: A498 renal
# [3] = test system: A549 NSCLC
# [4] = test system: ACHN renal
# [5] = test system: BT-549 breast
# [6] = test system: CCRF-CEM leukemia
# [7] = test system: COLO 205 colon
# [8] = test system: EKVX NSCLC
# [9] = test system: HCC-2998 colon
# [10] = test system: HCT-116 colon
# [11] = test system: HCT-15 colon
# [12] = test system: HL-60(TB) leukemia
# [13] = test system: HOP-62 NSCLC
# [14] = test system: HOP-92 NSCLC
# [15] = test system: HS 578T breast
# [16] = test system: HT29 colon
# [17] = test system: IGROV1 ovarian
# [18] = test system: K-562 leukemia
# [19] = test system: KM12 colon
# [20] = test system: LOX IMVI melanoma
# [21] = test system: M14 melanoma
# [22] = test system: MALME-3M melanoma
# [23] = test system: MCF7 breast
# [24] = test system: MDA-MB-231 breast
# [25] = test system: MDA-MB-435
# [26] = test system: MOLT-4 leukemia
# [27] = test system: NCI-H226 lung
# [28] = test system: NCI-H23 lung
# [29] = test system: NCI-H460 lung
# [30] = test system: NCI-H522 lung
# [31] = test system: NCI/ADR-RES ovarian
# [32] = test system: OVCAR-3 ovarian
# [33] = test system: OVCAR-4 ovarian
# [34] = test system: OVCAR-5 ovarian
# [35] = test system: OVCAR-8 ovarian
# [36] = test system: PC-3 prostate
# [37] = test system: RPMI-8226 leukemia
# [38] = test system: RXF 393 renal
# [39] = test system: SF-268 CNS
# [40] = test system: SF-295 CNS
# [41] = test system: SF-539 CNS
# [42] = test system: SK-MEL-2 melanoma
# [43] = test system: SK-MEL-28 melanoma
# [44] = test system: SK-MEL-5 melanoma
# [45] = test system: SK-OV-3 ovarian
# [46] = test system: SN12C renal
# [47] = test system: SNB-19 CNS
# [48] = test system: SNB-75 CNS
# [49] = test system: SR leukemia
# [50] = test system: SW-620 colon
# [51] = test system: T-47D breast
# [52] = test system: TK-10 renal
# [53] = test system: U251 CNS
# [54] = test system: UACC-257 melanoma
# [55] = test system: UACC-62 melanoma
# [56] = test system: UO-31 renal
# [57] = test system: CAKI-1 renal
# [58] = test system: DU-145 prostate
structure (smiles),measurement,setting,value
CCC(C)[C@H]1C(=O)O[C@H](C(C)C)C(=O)N(C)[C@@H](C(C)C)C(=O)O[C@H](C(C)C)C(=O)N(C)[C@@H](C(C)C)C(=O)O[C@H](C(C)C)C(=O)N1C (stereo partly drawn),GI50,[1],3090 nM
same,TGI,[1],> 10000 nM
same,GI50,[2],2610 nM
same,TGI,[2],9710 nM
same,GI50,[3],3000 nM
same,TGI,[3],> 10000 nM
same,GI50,[4],788 nM
same,TGI,[4],> 10000 nM
same,GI50,[5],2500 nM
same,TGI,[5],> 10000 nM
same,GI50,[6],3000 nM
same,TGI,[6],> 10000 nM
same,GI50,[7],1230 nM
same,TGI,[7],2940 nM
same,GI50,[8],2100 nM
same,TGI,[8],> 10000 nM
same,GI50,[9],2670 nM
same,TGI,[9],> 10000 nM
same,GI50,[10],2080 nM
same,TGI,[10],> 10000 nM
same,GI50,[11],2700 nM
same,TGI,[11],> 10000 nM
same,GI50,[12],2460 nM
same,TGI,[12],5260 nM
same,GI50,[13],3520 nM
same,TGI,[13],> 10000 nM
same,GI50,[14],1210 nM
same,TGI,[14],6010 nM
same,GI50,[15],4640 nM
same,TGI,[15],> 10000 nM
same,GI50,[16],2570 nM
same,TGI,[16],> 10000 nM
same,GI50,[17],3510 nM
same,TGI,[17],> 10000 nM
same,GI50,[18],1460 nM
same,TGI,[18],> 10000 nM
same,GI50,[19],1570 nM
same,TGI,[19],> 10000 nM
same,GI50,[20],1940 nM
same,TGI,[20],> 10000 nM
same,GI50,[21],1660 nM
same,TGI,[21],> 10000 nM
same,GI50,[22],577 nM
same,TGI,[22],> 10000 nM
same,GI50,[23],1260 nM
same,TGI,[23],> 10000 nM
same,GI50,[24],2560 nM
same,TGI,[24],8150 nM
same,GI50,[25],2460 nM
same,TGI,[25],> 10000 nM
same,GI50,[26],3610 nM
same,TGI,[26],9970 nM
same,GI50,[27],3620 nM
same,TGI,[27],> 10000 nM
same,GI50,[28],1680 nM
same,TGI,[28],> 10000 nM
same,GI50,[29],1650 nM
same,TGI,[29],> 10000 nM
same,GI50,[30],1610 nM
same,TGI,[30],> 10000 nM
same,GI50,[31],2120 nM
same,TGI,[31],> 10000 nM
same,GI50,[32],704 nM
same,TGI,[32],> 10000 nM
same,GI50,[33],2010 nM
same,TGI,[33],> 10000 nM
same,GI50,[34],3210 nM
same,TGI,[34],> 10000 nM
same,GI50,[35],2110 nM
same,TGI,[35],> 10000 nM
same,GI50,[36],1560 nM
same,TGI,[36],> 10000 nM
same,GI50,[37],457 nM
same,TGI,[37],4930 nM
same,GI50,[38],2730 nM
same,TGI,[38],> 10000 nM
same,GI50,[39],3850 nM
same,TGI,[39],> 10000 nM
same,GI50,[40],717 nM
same,TGI,[40],> 10000 nM
same,GI50,[41],3650 nM
same,TGI,[41],> 10000 nM
same,GI50,[42],3810 nM
same,TGI,[42],> 10000 nM
same,GI50,[43],2720 nM
same,TGI,[43],> 10000 nM
same,GI50,[44],761 nM
same,TGI,[44],2920 nM
same,GI50,[45],2470 nM
same,TGI,[45],7590 nM
same,GI50,[46],1720 nM
same,TGI,[46],> 10000 nM
same,GI50,[47],2070 nM
same,TGI,[47],> 10000 nM
same,GI50,[48],2750 nM
same,TGI,[48],> 10000 nM
same,GI50,[49],3670 nM
same,TGI,[49],> 10000 nM
same,GI50,[50],3100 nM
same,TGI,[50],> 10000 nM
same,GI50,[51],1080 nM
same,TGI,[51],7810 nM
same,GI50,[52],2580 nM
same,TGI,[52],> 10000 nM
same,GI50,[53],2190 nM
same,TGI,[53],> 10000 nM
same,GI50,[54],2080 nM
same,TGI,[54],> 10000 nM
same,GI50,[55],631 nM
same,TGI,[55],> 10000 nM
same,GI50,[56],1030 nM
same,TGI,[56],> 10000 nM
COc1ccc([C@H]2[C@H](O)C(=O)N2c2cc(OC)c(OC)c(OC)c2)cc1Cl,GI50,[1],< 15.5 nM
same,TGI,[1],> 100000 nM
same,GI50,[2],> 59800 nM
same,TGI,[2],> 100000 nM
same,GI50,[3],< 14.1 nM
same,TGI,[3],> 100000 nM
same,GI50,[4],< 10 nM
same,TGI,[4],> 100000 nM
same,GI50,[5],< 12.5 nM
same,TGI,[5],718 nM
same,GI50,[57],< 10 nM
same,TGI,[57],> 43100 nM
same,GI50,[6],< 10 nM
same,TGI,[6],> 100000 nM
same,GI50,[7],< 14.9 nM
same,TGI,[7],< 22.5 nM
same,GI50,[58],< 12.8 nM
same,TGI,[58],> 100000 nM
same,TGI,[8],> 100000 nM
same,GI50,[9],< 18.8 nM
same,GI50,[10],< 10 nM
same,TGI,[10],> 62600 nM
same,GI50,[11],< 11.8 nM
same,TGI,[11],> 100000 nM
same,GI50,[12],< 10 nM
same,GI50,[13],< 11.4 nM
same,TGI,[13],> 100000 nM
same,GI50,[14],828 nM
same,TGI,[14],> 100000 nM
same,GI50,[15],< 15.8 nM
same,TGI,[15],> 100000 nM
same,GI50,[16],< 10 nM
same,GI50,[17],< 11.1 nM
same,TGI,[17],> 100000 nM
same,GI50,[18],< 10 nM
same,TGI,[18],> 100000 nM
same,GI50,[19],< 11.3 nM
same,TGI,[19],> 100000 nM
same,GI50,[20],< 10 nM
same,TGI,[20],> 100000 nM
same,GI50,[21],< 12.8 nM
same,TGI,[21],> 100000 nM
same,GI50,[22],< 14.9 nM
same,TGI,[22],> 100000 nM
same,GI50,[23],< 10 nM
same,TGI,[23],> 100000 nM
same,GI50,[24],< 16.1 nM
same,TGI,[24],> 100000 nM
same,GI50,[25],< 10 nM
same,TGI,[25],< 10.4 nM
same,GI50,[26],< 17 nM
same,TGI,[26],> 100000 nM
same,GI50,[27],< 10 nM
same,TGI,[27],50500 nM
same,GI50,[28],10.6 nM
same,TGI,[28],> 100000 nM
same,GI50,[29],< 12.7 nM
same,GI50,[30],< 10 nM
same,TGI,[30],< 10.5 nM
same,GI50,[31],< 13.6 nM
same,GI50,[32],< 10 nM
same,GI50,[33],442 nM
same,TGI,[33],> 100000 nM
same,GI50,[34],< 12 nM
same,TGI,[34],> 100000 nM
same,GI50,[35],< 14.1 nM
same,GI50,[36],< 16.8 nM
same,TGI,[36],> 100000 nM
same,GI50,[37],< 11.2 nM
same,TGI,[37],> 35400 nM
same,GI50,[38],< 10 nM
same,TGI,[38],> 100000 nM
same,GI50,[39],< 24.1 nM
same,TGI,[39],> 100000 nM
same,GI50,[40],< 10 nM
same,TGI,[40],> 100000 nM
same,GI50,[41],< 10 nM
same,GI50,[42],31.9 nM
same,TGI,[42],> 100000 nM
same,GI50,[43],< 43.4 nM
same,TGI,[43],> 100000 nM
same,GI50,[44],< 10 nM
same,TGI,[44],36.5 nM
same,GI50,[45],< 18.7 nM
same,TGI,[45],> 100000 nM
same,GI50,[46],< 10 nM
same,TGI,[46],> 100000 nM
same,GI50,[47],< 24.1 nM
same,TGI,[47],> 100000 nM
same,GI50,[48],< 10 nM
same,TGI,[48],> 100000 nM
same,GI50,[49],< 10 nM
same,TGI,[49],> 87200 nM
same,GI50,[50],< 10 nM
same,TGI,[50],> 100000 nM
same,GI50,[51],> 38400 nM
same,TGI,[51],> 100000 nM
same,GI50,[52],> 100000 nM
same,TGI,[52],> 100000 nM
same,GI50,[53],18.6 nM
same,TGI,[53],> 100000 nM
same,TGI,[54],> 100000 nM
same,GI50,[55],< 10 nM
same,TGI,[55],> 100000 nM
same,GI50,[56],< 19.2 nM
same,TGI,[56],> 100000 nM
